# In patent US12618095B2, “Medium for Bacillus cereus group detection” (SHIMADZU DIAGNOSTICS CORPORATION, priority 2020, dated 2026):
# Tests used:
# Test in all cases: Test Example 10: agar medium with aztreonam or ceftazidime
# B. thuringiensis = settings: NBRC101235, 22 hours
# B. cereus = settings: 22 hours
# E. amnigenus = settings: 22 hours; for Number of colonies: ATCC33072
# E. coli = assay type: cell-based; settings: 22 hours; for Number of colonies: ATCC8739
compound,measurement,setting,value
C[C@H]1[C@H](NC(=O)/C(=N\OC(C)(C)C(=O)O)c2csc(N)n2)C(=O)N1S(=O)(=O)O [aztreonam],Number of colonies,"B. thuringiensis; Aztreonam 0.05 mg, 10^1 cfu/mL",3
same,Number of colonies,"B. thuringiensis; Aztreonam 0.05 mg, 10^2 cfu/mL",16
same,Number of colonies,"B. thuringiensis; Aztreonam 0.05 mg, 10^3 cfu/mL",+
same,Number of colonies,"B. thuringiensis; Aztreonam 0.05 mg, 10^4 cfu/mL",+
same,Number of colonies,"B. thuringiensis; Aztreonam 0.05 mg, 10^5 cfu/mL",+
same,Number of colonies,"B. thuringiensis; Aztreonam 0.5 mg, 10^1 cfu/mL",1
same,Number of colonies,"B. thuringiensis; Aztreonam 0.5 mg, 10^2 cfu/mL",13
same,Number of colonies,"B. thuringiensis; Aztreonam 0.5 mg, 10^3 cfu/mL",+
same,Number of colonies,"B. thuringiensis; Aztreonam 0.5 mg, 10^4 cfu/mL",+
same,Number of colonies,"B. thuringiensis; Aztreonam 0.5 mg, 10^5 cfu/mL",+
same,Number of colonies,"B. thuringiensis; Aztreonam 5 mg, 10^1 cfu/mL",2
same,Number of colonies,"B. thuringiensis; Aztreonam 5 mg, 10^2 cfu/mL",16
same,Number of colonies,"B. thuringiensis; Aztreonam 5 mg, 10^3 cfu/mL",+
same,Number of colonies,"B. thuringiensis; Aztreonam 5 mg, 10^4 cfu/mL",+
same,Number of colonies,"B. thuringiensis; Aztreonam 5 mg, 10^5 cfu/mL",+
same,Number of colonies,"B. cereus; ATCC11778, Aztreonam 0.05 mg, 10^1 cfu/mL",1
same,Number of colonies,"B. cereus; ATCC11778, Aztreonam 0.05 mg, 10^2 cfu/mL",13
same,Number of colonies,"B. cereus; ATCC11778, Aztreonam 0.05 mg, 10^3 cfu/mL",+
same,Number of colonies,"B. cereus; ATCC11778, Aztreonam 0.05 mg, 10^4 cfu/mL",+
same,Number of colonies,"B. cereus; ATCC11778, Aztreonam 0.05 mg, 10^5 cfu/mL",+
same,Number of colonies,"B. cereus; ATCC11778, Aztreonam 0.5 mg, 10^1 cfu/mL",1
same,Number of colonies,"B. cereus; ATCC11778, Aztreonam 0.5 mg, 10^2 cfu/mL",12
same,Number of colonies,"B. cereus; ATCC11778, Aztreonam 0.5 mg, 10^3 cfu/mL",+
same,Number of colonies,"B. cereus; ATCC11778, Aztreonam 0.5 mg, 10^4 cfu/mL",+
same,Number of colonies,"B. cereus; ATCC11778, Aztreonam 0.5 mg, 10^5 cfu/mL",+
same,Number of colonies,"B. cereus; ATCC11778, Aztreonam 5 mg, 10^1 cfu/mL",2
same,Number of colonies,"B. cereus; ATCC11778, Aztreonam 5 mg, 10^2 cfu/mL",17
same,Number of colonies,"B. cereus; ATCC11778, Aztreonam 5 mg, 10^3 cfu/mL",+
same,Number of colonies,"B. cereus; ATCC11778, Aztreonam 5 mg, 10^4 cfu/mL",+
same,Number of colonies,"B. cereus; ATCC11778, Aztreonam 5 mg, 10^5 cfu/mL",+
same,Number of colonies,"B. cereus; ATCC19637, Aztreonam 0.05 mg, 10^1 cfu/mL",3
same,Number of colonies,"B. cereus; ATCC19637, Aztreonam 0.05 mg, 10^2 cfu/mL",2
same,Number of colonies,"B. cereus; ATCC19637, Aztreonam 0.05 mg, 10^3 cfu/mL",+
same,Number of colonies,"B. cereus; ATCC19637, Aztreonam 0.05 mg, 10^4 cfu/mL",+
same,Number of colonies,"B. cereus; ATCC19637, Aztreonam 0.05 mg, 10^5 cfu/mL",+
same,Number of colonies,"B. cereus; ATCC19637, Aztreonam 0.5 mg, 10^1 cfu/mL",1
same,Number of colonies,"B. cereus; ATCC19637, Aztreonam 0.5 mg, 10^2 cfu/mL",10
same,Number of colonies,"B. cereus; ATCC19637, Aztreonam 0.5 mg, 10^3 cfu/mL",+
same,Number of colonies,"B. cereus; ATCC19637, Aztreonam 0.5 mg, 10^4 cfu/mL",+
same,Number of colonies,"B. cereus; ATCC19637, Aztreonam 0.5 mg, 10^5 cfu/mL",+
same,Number of colonies,"B. cereus; ATCC19637, Aztreonam 5 mg, 10^1 cfu/mL",1
same,Number of colonies,"B. cereus; ATCC19637, Aztreonam 5 mg, 10^2 cfu/mL",5
same,Number of colonies,"B. cereus; ATCC19637, Aztreonam 5 mg, 10^3 cfu/mL",+
same,Number of colonies,"B. cereus; ATCC19637, Aztreonam 5 mg, 10^4 cfu/mL",+
same,Number of colonies,"B. cereus; ATCC19637, Aztreonam 5 mg, 10^5 cfu/mL",+
same,Number of colonies,"E. amnigenus; Aztreonam 0.05 mg, 10^1 cfu/mL",−
same,Number of colonies,"E. amnigenus; Aztreonam 0.05 mg, 10^2 cfu/mL",−
same,Number of colonies,"E. amnigenus; Aztreonam 0.05 mg, 10^3 cfu/mL",−
same,Number of colonies,"E. amnigenus; Aztreonam 0.05 mg, 10^4 cfu/mL",−
same,Number of colonies,"E. amnigenus; Aztreonam 0.05 mg, 10^5 cfu/mL",2
same,Number of colonies,"E. amnigenus; Aztreonam 0.5 mg, 10^1 cfu/mL",−
same,Number of colonies,"E. amnigenus; Aztreonam 0.5 mg, 10^2 cfu/mL",−
same,Number of colonies,"E. amnigenus; Aztreonam 0.5 mg, 10^3 cfu/mL",−
same,Number of colonies,"E. amnigenus; Aztreonam 0.5 mg, 10^4 cfu/mL",−
same,Number of colonies,"E. amnigenus; Aztreonam 0.5 mg, 10^5 cfu/mL",−
same,Number of colonies,"E. amnigenus; Aztreonam 5 mg, 10^1 cfu/mL",−
same,Number of colonies,"E. amnigenus; Aztreonam 5 mg, 10^2 cfu/mL",−
same,Number of colonies,"E. amnigenus; Aztreonam 5 mg, 10^3 cfu/mL",−
same,Number of colonies,"E. amnigenus; Aztreonam 5 mg, 10^4 cfu/mL",−
same,Number of colonies,"E. amnigenus; Aztreonam 5 mg, 10^5 cfu/mL",−
same,formation of a white colony,"E. amnigenus; added to TSA-BC, 30° C.",suppressed
same,Number of colonies,"E. coli; Aztreonam 0.05 mg, 10^1 cfu/mL",−
same,Number of colonies,"E. coli; Aztreonam 0.05 mg, 10^2 cfu/mL",−
same,Number of colonies,"E. coli; Aztreonam 0.05 mg, 10^3 cfu/mL",−
same,Number of colonies,"E. coli; Aztreonam 0.05 mg, 10^4 cfu/mL",−
same,Number of colonies,"E. coli; Aztreonam 0.05 mg, 10^5 cfu/mL",−
same,Number of colonies,"E. coli; Aztreonam 0.5 mg, 10^1 cfu/mL",−
same,Number of colonies,"E. coli; Aztreonam 0.5 mg, 10^2 cfu/mL",−
same,Number of colonies,"E. coli; Aztreonam 0.5 mg, 10^3 cfu/mL",−
same,Number of colonies,"E. coli; Aztreonam 0.5 mg, 10^4 cfu/mL",−
same,Number of colonies,"E. coli; Aztreonam 0.5 mg, 10^5 cfu/mL",−
same,Number of colonies,"E. coli; Aztreonam 5 mg, 10^1 cfu/mL",−
same,Number of colonies,"E. coli; Aztreonam 5 mg, 10^2 cfu/mL",−
same,Number of colonies,"E. coli; Aztreonam 5 mg, 10^3 cfu/mL",−
same,Number of colonies,"E. coli; Aztreonam 5 mg, 10^4 cfu/mL",−
same,Number of colonies,"E. coli; Aztreonam 5 mg, 10^5 cfu/mL",−
same,formation of a white colony,"E. coli; added to TSA-BC, 30° C.",suppressed
